In ChEMBL document CHEMBL1201862, “PubChem BioAssay data set” (2004):
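The compound was tested at five concentrations on cells cultured in 96-well plates, with a 48-hour exposure period. At the GI50, growth is halved.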 Active and inactive are the calls of the source. Cut-off read from the data, not from the text of the source: active = GI50 up to about 1.1 µM and inactive = higher.

Assays:
Assay in all cases: growth of human tumour cells (NCI), 48 h
TK-10 = system: TK-10
M14 = system: M14
A549 = system: A549
HOP-62 = system: HOP-62
SNB-19 = system: SNB-19
COLO 205 = system: COLO 205
HL-60 = system: HL-60
OVCAR-4 = system: OVCAR-4
Malme-3M = system: Malme-3M
U-251 = system: U-251
NCI-H226 = system: NCI-H226
SK-MEL-28 = system: SK-MEL-28
UO-31 = system: UO-31
A498 = system: A498
LOX IMVI = system: LOX IMVI
HCT-15 = system: HCT-15
SK-MEL-2 = system: SK-MEL-2
ACHN = system: ACHN
RXF 393 = system: RXF 393
SR = system: SR

| Structure (SMILES) | GI50 (TK-10) | GI50 (M14) | GI50 (A549) | GI50 (HOP-62) | GI50 (SNB-19) | GI50 (COLO 205) | GI50 (HL-60) | GI50 (OVCAR-4) | GI50 (Malme-3M) | GI50 (U-251) | GI50 (NCI-H226) | GI50 (SK-MEL-28) | GI50 (UO-31) | GI50 (A498) | GI50 (LOX IMVI) | GI50 (HCT-15) [µM] | GI50 (SK-MEL-2) | GI50 (ACHN) | GI50 (RXF 393) | GI50 (SR) |
| --- | --- | --- | --- | --- | --- | --- | --- | --- | --- | --- | --- | --- | --- | --- | --- | --- | --- | --- | --- | --- |
| NCCNC(=S)S | > 100 µM (inactive) | > 100 µM (inactive) | > 100 µM (inactive) | > 100 µM (inactive) | > 100 µM (inactive) | > 100 µM (inactive) | 44.7 µM (inactive) | > 100 µM (inactive) | 11.9 µM (inactive) | > 100 µM (inactive) | > 100 µM (inactive) | > 100 µM (inactive) | > 100 µM (inactive) | > 100 µM (inactive) | 51.8 µM (inactive) | 58.2 | > 100 µM (inactive) | > 100 µM (inactive) | > 100 µM (inactive) | – |
| O=C(c1ccccc1)c1nc2ccc(Cl)cc2c2c1Cc1ccccc1-2 | > 100 µM (inactive) | > 100 µM (inactive) | > 100 µM (inactive) | > 100 µM (inactive) | > 100 µM (inactive) | > 100 µM (inactive) | – | > 100 µM (inactive) | > 100 µM (inactive) | > 100 µM (inactive) | > 100 µM (inactive) | > 100 µM (inactive) | > 100 µM (inactive) | – | > 100 µM (inactive) | > 100 | > 100 µM (inactive) | > 100 µM (inactive) | > 100 µM (inactive) | > 100 µM (inactive) |
| c1ccc(-c2cc(-c3cc(-c4ccccc4)[nH]n3)[nH]n2)cc1 | > 100 µM (inactive) | > 100 µM (inactive) | > 100 µM (inactive) | > 100 µM (inactive) | > 100 µM (inactive) | > 100 µM (inactive) | – | > 100 µM (inactive) | > 100 µM (inactive) | > 100 µM (inactive) | > 100 µM (inactive) | – | > 100 µM (inactive) | > 100 µM (inactive) | – | > 100 | > 100 µM (inactive) | > 100 µM (inactive) | > 100 µM (inactive) | > 100 µM (inactive) |
| COc1ccc2nc3cc(Cl)ccc3c(NCCC[N+](C)(C)CCCCCCCCCCCCCCCC[N+](C)(C)CCCNc3c4ccc(Cl)cc4nc4ccc(OC)cc34)c2c1 | 4.22 µM (inactive) | 4.7 µM (inactive) | 3.12 µM (inactive) | 2.88 µM (inactive) | 2.69 µM (inactive) | 1.83 µM (inactive) | 1.69 µM (inactive) | 2.44 µM (inactive) | 2.24 µM (inactive) | 2 µM (inactive) | 3.94 µM (inactive) | 2.08 µM (inactive) | > 10 µM (inactive) | 6.17 µM (inactive) | 1.96 µM (inactive) | 5.85 | 1.79 µM (inactive) | 6.22 µM (inactive) | 2.84 µM (inactive) | – |
| O=C(Nc1ccccc1C(=O)NC(=O)c1ccccc1NC(=O)c1ccccc1)c1ccccc1 | 10.9 µM (inactive) | – | 7.53 µM (inactive) | 12.4 µM (inactive) | 7.36 µM (inactive) | 1.46 µM (inactive) | – | 3.41 µM (inactive) | 3.34 µM (inactive) | 3.49 µM (inactive) | – | 3.13 µM (inactive) | – | 15.1 µM (inactive) | 2.24 µM (inactive) | 16.9 | 1.87 µM (inactive) | 17.9 µM (inactive) | 2.88 µM (inactive) | 2.42 µM (inactive) |
| CCC1(CC)C(=O)N(C(=O)c2cc(OC)c(OC)c(OC)c2)N(C(=O)c2cc(OC)c(OC)c(OC)c2)C1=O | > 50 µM (inactive) | > 50 µM (inactive) | > 50 µM (inactive) | > 50 µM (inactive) | > 50 µM (inactive) | > 50 µM (inactive) | 28.5 µM (inactive) | > 50 µM (inactive) | > 50 µM (inactive) | > 50 µM (inactive) | > 50 µM (inactive) | > 50 µM (inactive) | > 50 µM (inactive) | > 50 µM (inactive) | > 50 µM (inactive) | > 50 | > 50 µM (inactive) | > 50 µM (inactive) | > 50 µM (inactive) | – |
| C/C(=N/NC(N)=S)c1ccc[nH]1 | > 100 µM (inactive) | > 100 µM (inactive) | > 100 µM (inactive) | > 100 µM (inactive) | > 100 µM (inactive) | > 100 µM (inactive) | > 100 µM (inactive) | 78.9 µM (inactive) | > 100 µM (inactive) | > 100 µM (inactive) | > 100 µM (inactive) | > 100 µM (inactive) | > 100 µM (inactive) | > 100 µM (inactive) | > 100 µM (inactive) | > 100 | > 100 µM (inactive) | > 100 µM (inactive) | > 100 µM (inactive) | – |
| C[N+](C)(C)c1nc(N)nc2c1ncn2C1OC(CO)C(O)C1O (stereo not drawn) | > 100 µM (inactive) | > 100 µM (inactive) | > 100 µM (inactive) | > 100 µM (inactive) | > 100 µM (inactive) | > 100 µM (inactive) | – | > 100 µM (inactive) | > 100 µM (inactive) | > 100 µM (inactive) | – | > 100 µM (inactive) | > 100 µM (inactive) | > 100 µM (inactive) | > 100 µM (inactive) | > 100 | > 100 µM (inactive) | > 100 µM (inactive) | > 100 µM (inactive) | > 100 µM (inactive) |
| Cc1cc2c(c(C)c1O)C(C)(C)CN2C(=O)C(C)(C)C | > 100 µM (inactive) | 80.7 µM (inactive) | > 100 µM (inactive) | > 100 µM (inactive) | > 100 µM (inactive) | 86.7 µM (inactive) | 77.4 µM (inactive) | 54.1 µM (inactive) | – | > 100 µM (inactive) | 26.1 µM (inactive) | > 100 µM (inactive) | 74.5 µM (inactive) | 66.7 µM (inactive) | > 100 µM (inactive) | > 100 | – | > 100 µM (inactive) | 22.7 µM (inactive) | – |
| COc1ccc(Nc2nn3c(=O)c4c(C)c(C)sc4nc3s2)cc1 | 26.8 µM (inactive) | 61.1 µM (inactive) | 18.6 µM (inactive) | 29.1 µM (inactive) | 47.6 µM (inactive) | > 100 µM (inactive) | 97.5 µM (inactive) | 24.4 µM (inactive) | 32.2 µM (inactive) | 37.9 µM (inactive) | 67.8 µM (inactive) | 61.1 µM (inactive) | 18 µM (inactive) | – | 56.9 µM (inactive) | 44.7 | 35.6 µM (inactive) | 41.4 µM (inactive) | 19.7 µM (inactive) | 9.84 µM (inactive) |
| CCCCOC(=O)NC(=O)c1cn(CCCOC(=O)CCCCCCCCC(=O)OCCCn2cc(C(=O)NC(=O)OCCCC)c(=O)[nH]c2=O)c(=O)[nH]c1=O | > 100 µM (inactive) | > 100 µM (inactive) | > 100 µM (inactive) | > 100 µM (inactive) | > 100 µM (inactive) | > 100 µM (inactive) | > 100 µM (inactive) | > 100 µM (inactive) | > 100 µM (inactive) | > 100 µM (inactive) | > 100 µM (inactive) | > 100 µM (inactive) | > 100 µM (inactive) | – | > 100 µM (inactive) | > 100 | > 100 µM (inactive) | > 100 µM (inactive) | 83 µM (inactive) | > 100 µM (inactive) |
| c1ccc2c(c1)cc1c3[nH]c4ccccc4c3ccn21 | > 10 µM (inactive) | > 10 µM (inactive) | > 10 µM (inactive) | > 10 µM (inactive) | > 10 µM (inactive) | 1.61 µM (inactive) | 0.687 µM (active) | > 10 µM (inactive) | 1.65 µM (inactive) | > 10 µM (inactive) | > 10 µM (inactive) | > 10 µM (inactive) | > 10 µM (inactive) | – | > 10 µM (inactive) | > 10 | > 10 µM (inactive) | > 10 µM (inactive) | > 10 µM (inactive) | > 10 µM (inactive) |
| O=S(=O)(O)C(Cc1nc2ccccc2[nH]1)S(=O)(=O)OCCC1S(=O)(=O)OCCOS1(=O)=O (stereo not drawn) | > 100 µM (inactive) | > 100 µM (inactive) | > 100 µM (inactive) | > 100 µM (inactive) | > 100 µM (inactive) | > 100 µM (inactive) | > 100 µM (inactive) | > 100 µM (inactive) | > 100 µM (inactive) | > 100 µM (inactive) | > 100 µM (inactive) | > 100 µM (inactive) | > 100 µM (inactive) | > 100 µM (inactive) | > 100 µM (inactive) | > 100 | > 100 µM (inactive) | > 100 µM (inactive) | > 100 µM (inactive) | – |
| O=C1C2C3C=C4c5ccccc5N(c5ccccc5)C4([C@@H]2C(=O)N1c1ccc(F)cc1)[C@H]1C(=O)N(c2ccc(F)cc2)C(=O)[C@@H]31 (stereo partly drawn) | > 100 µM (inactive) | > 100 µM (inactive) | > 100 µM (inactive) | – | > 100 µM (inactive) | > 100 µM (inactive) | > 100 µM (inactive) | – | > 100 µM (inactive) | > 100 µM (inactive) | > 100 µM (inactive) | > 100 µM (inactive) | 20.9 µM (inactive) | – | > 100 µM (inactive) | > 100 | > 100 µM (inactive) | > 100 µM (inactive) | 81.3 µM (inactive) | > 100 µM (inactive) |
| COc1cccc(/C=C2\CCCc3ccccc3C2=O)c1 | 26.4 µM (inactive) | 13 µM (inactive) | 23 µM (inactive) | 16.1 µM (inactive) | 11.7 µM (inactive) | 17.8 µM (inactive) | 13.8 µM (inactive) | 13.5 µM (inactive) | 19.6 µM (inactive) | 15 µM (inactive) | 18.8 µM (inactive) | 18.1 µM (inactive) | 15.1 µM (inactive) | – | 17.4 µM (inactive) | 10.9 | 13.8 µM (inactive) | 26.4 µM (inactive) | – | 13 µM (inactive) |
